The subject of one assay is SARS-CoV-2. Description: microbe, parasite or virus in culture. It is filed as cell-based. As to conditions: Severe acute respiratory syndrome coronavirus 2, VeroE6/TMPRSS2, 72 h, 50% SARS-CoV-2 infected cell death inhibitory concentration, VeroE6/TMPRSS2 cells, 3 days culture.
Another assay addresses SARS-CoV-2 3CL protease (Severe acute respiratory syndrome coronavirus 2, UniProt P0DTD1). Briefly: biochemical. Conditions: 50% SARS-CoV-2 3CL protease inhibitory concentration, read-out: IC50.

This note sets out measurements from patent US12559474B2, “Triazine derivatives having virus replication inhibitory activity and pharmaceutical composition comprising the same” (priority 2021, dated 2026).

Like-named read-outs stand apart in the source and are kept apart here.

`Cc1cncc(-n2c(=O)nc(Nc3cc4cn(CCN5CCOCC5)nc4cc3Cl)n(Cc3cc(F)c(F)c(F)c3)c2=O)c1` [II-0351]: the EC50 (in general, the midpoint of the concentration-response curve) with SARS-CoV-2 (class symbols) was less than 1 µM. In addition, the half-maximal inhibitory concentration (IC50) (in general, the concentration at which inhibition is half-maximal) on SARS-CoV-2 3CL protease (given as class symbols) is less than 0.1 µM.

Turning to `Cn1cnc(Cn2c(=O)nc(Nc3cc4cn(CC5CC5)nc4cc3Cl)n(Cc3cc(F)c(F)cc3F)c2=O)n1` [II-0352], the half-maximal effective concentration (EC50) with SARS-CoV-2 (class symbols) was less than 1 µM. Besides, at SARS-CoV-2 3CL protease (given as class symbols), the IC50 was less than 0.1 µM.

Consider `Cc1cncc(-n2c(=O)nc(Nc3cc4c(cc3F)nc(C)n4C)n(Cc3ccc(F)c(C#N)c3)c2=O)c1` [II-0353], for which the concentration giving a half-maximal response (EC50) in the assay on SARS-CoV-2 (class symbols) lay in the range of 1 to 10 µM. Further, on SARS-CoV-2 3CL protease (given as class symbols), the IC50 was less than 0.1 µM.

Consider `Cc1cncc(-n2c(=O)nc(Nc3ccc4nc(C)n(C)c4c3)n(Cc3ccc(F)c(C#N)c3)c2=O)c1` [II-0354], for which the EC50 in the assay with SARS-CoV-2 (class symbols) is 1 to 10 µM. The IC50 on SARS-CoV-2 3CL protease (given as class symbols) is less than 0.1 µM.

With `Cc1cncc(-n2c(=O)nc(Nc3cc4cn(CC(F)F)nc4cc3F)n(Cc3cc(F)c(F)cc3F)c2=O)c1` [II-0355], in the assay with SARS-CoV-2 (class symbols), the EC50 is less than 1 µM. For the same molecule, the IC50 on SARS-CoV-2 3CL protease (given as class symbols) was less than 0.1 µM.

Regarding `Cc1cncc(-n2c(=O)nc(Nc3cc4c(cc3Cl)nc(C)n4C)n(Cc3cc(F)c(F)c(F)c3)c2=O)c1` [II-0356], the half-maximal effective concentration (EC50) in the assay on SARS-CoV-2 (class symbols) was in the range of 1 to 10 µM. In addition, the concentration for half-maximal inhibition (IC50) on SARS-CoV-2 3CL protease (given as class symbols) is less than 0.1 µM.

In the case of `Cn1cnc(Cn2c(=O)nc(Nc3cc4cn(CC(F)F)nc4cc3F)n(Cc3cc(F)c(F)cc3F)c2=O)n1` [II-0359], the EC50 with SARS-CoV-2 (class symbols) lay within 1 to 10 µM. In addition, the 50% inhibitory concentration (IC50) on SARS-CoV-2 3CL protease (given as class symbols) was less than 0.1 µM.

Consider `Cc1cncc(-n2c(=O)nc(Nc3cc4c(cc3F)nc(C)n4C)n(Cc3cc(F)c(F)c(F)c3)c2=O)c1` [II-0360], for which the EC50 in the assay on SARS-CoV-2 (class symbols) is 1 to 10 µM. Besides, the IC50 at SARS-CoV-2 3CL protease (given as class symbols) was less than 0.1 µM.

For `Cn1cnc(Cn2c(=O)nc(Nc3cc4cn(C)nc4cc3Cl)n(Cc3cc(Cl)ccc3F)c2=O)n1` [II-0361], in the assay with SARS-CoV-2 (class symbols), the EC50 was less than 1 µM. On SARS-CoV-2 3CL protease (given as class symbols), the half-maximal inhibitory concentration (IC50) is less than 0.1 µM.

On to `Cc1cncc(-n2c(=O)nc(Nc3cc4cn(C)nc4cc3Cl)n(Cc3cc(Cl)ccc3F)c2=O)c1` [II-0362], for which, in the assay on SARS-CoV-2 (class symbols), the EC50 was less than 1 µM. For the same molecule, the half-inhibitory concentration (IC50) on SARS-CoV-2 3CL protease (given as class symbols) was less than 0.1 µM.

`Cn1cnc(Cn2c(=O)nc(Nc3cc4cn(C)nc4cc3Cl)n(Cc3cc(Cl)c(F)cc3Cl)c2=O)n1` [II-0363]: in the assay on SARS-CoV-2 (class symbols), the EC50 was less than 1 µM. For the same molecule, the IC50 on SARS-CoV-2 3CL protease (given as class symbols) is less than 0.1 µM.

Regarding `Cc1cncc(-n2c(=O)nc(Nc3cc4cn(C)nc4cc3F)n(Cc3cc(C#N)ccc3Cl)c2=O)c1` [II-0364], in the assay with SARS-CoV-2 (class symbols), the EC50 is less than 1 µM. In addition, at SARS-CoV-2 3CL protease (given as class symbols), the IC50 was less than 0.1 µM.

Take `Cc1cc(F)c(C#N)cc1Cn1c(Nc2cc3cn(C)nc3cc2F)nc(=O)n(-c2cncc(Cl)c2)c1=O` [II-0365]: the concentration for a half-maximal effect (EC50) in the assay on SARS-CoV-2 (class symbols) is less than 1 µM. Moreover, the 50% inhibitory concentration (IC50) on SARS-CoV-2 3CL protease (given as class symbols) is less than 0.1 µM.

As to `Cc1cncc(-n2c(=O)nc(Nc3cc4cn(C5CC5)nc4cc3Cl)n(Cc3ccc(F)c(C#N)c3)c2=O)c1` [II-0366], the EC50 with SARS-CoV-2 (class symbols) is less than 1 µM. Also, the IC50 at SARS-CoV-2 3CL protease (given as class symbols) is less than 0.1 µM.

In the assay with SARS-CoV-2 (class symbols), `Cn1cc2cc(Nc3nc(=O)n(-c4cncc(Cl)c4)c(=O)n3Cc3cc(F)c(F)c(C#N)c3)c(F)cc2n1` [II-0367] showed an EC50 of less than 1 µM. In addition, the IC50 on SARS-CoV-2 3CL protease (given as class symbols) is less than 0.1 µM.

In the assay on SARS-CoV-2 (class symbols), `Cc1cncc(-n2c(=O)nc(Nc3cc4c(C#N)n(C)nc4cc3Cl)n(Cc3ccc(F)c(C#N)c3)c2=O)c1` [II-0368] gave a concentration for a half-maximal effect (EC50) of 1 to 10 µM. At SARS-CoV-2 3CL protease (given as class symbols), the IC50 is less than 0.1 µM.

For `Cc1cncc(-n2c(=O)nc(N3CC4CCC3CC4)n(Cc3cc(F)c(F)c(F)c3)c2=O)c1` [II-0369], the concentration giving a half-maximal response (EC50) in the assay on SARS-CoV-2 (CellTiter-Glo 2.0) came to 1.16 µM. Moreover, the half-maximal inhibitory concentration (IC50) at SARS-CoV-2 3CL protease (RapidFire MS) was 0.63 µM.

Turning to `CC[C@@H](Nc1nc(=O)n(Cc2ccc[nH]c2=O)c(=O)n1Cc1cc(F)c(F)c(F)c1)C(F)(F)F` [II-0370], a half-maximal response with SARS-CoV-2 (CellTiter-Glo 2.0) (EC50) required 28.9 µM. At SARS-CoV-2 3CL protease (RapidFire MS), the 50% inhibitory concentration (IC50) is 0.52 µM.

Take `O=c1[nH]cccc1Cn1c(=O)nc(NCC2CCCC2)n(Cc2cc(F)c(F)c(F)c2)c1=O` [II-0371]: in the assay with SARS-CoV-2 (CellTiter-Glo 2.0), it took 13.3 µM to reach a half-maximal effect (EC50). In addition, on SARS-CoV-2 3CL protease (RapidFire MS), the IC50 was determined as 0.54 µM.

In the assay with SARS-CoV-2 (CellTiter-Glo 2.0), `Cc1cncc(-n2c(=O)nc(N(C)C3CCCCC3)n(Cc3cc(F)c(F)c(F)c3)c2=O)c1` [II-0372] came in with an EC50 of 6.52 µM. The concentration for half-maximal inhibition (IC50) at SARS-CoV-2 3CL protease (RapidFire MS) amounted to 3.4 µM.

On to `Cc1cncc(-n2c(=O)nc(N3CC4CCC3CO4)n(Cc3cc(F)c(F)c(F)c3)c2=O)c1` (centres unmarked) [II-0375], for which the concentration for a half-maximal effect (EC50) in the assay with SARS-CoV-2 (CellTiter-Glo 2.0) is 21.6 µM. On SARS-CoV-2 3CL protease (RapidFire MS), the concentration for half-maximal inhibition (IC50) amounted to 3.8 µM.

In the assay on SARS-CoV-2 (CellTiter-Glo 2.0), `Cc1cncc(-n2c(=O)nc(N3CC4(CCOC4)C3)n(Cc3cc(F)c(F)c(F)c3)c2=O)c1` [II-0376] yielded an EC50 of 7.13 µM. Besides, the IC50 on SARS-CoV-2 3CL protease (RapidFire MS) came to 1 µM.

Molecule `Cc1cncc(-n2c(=O)nc(Nc3cc4cn(C)nc4cc3Cl)n(Cc3cc(Cl)c(F)cc3F)c2=O)c1` [II-0377] had a 50% effective concentration (EC50) in the assay on SARS-CoV-2 (CellTiter-Glo 2.0) of 0.049 µM. Further, the concentration for half-maximal inhibition (IC50) on SARS-CoV-2 3CL protease (RapidFire MS) was determined as 0.003 µM.

As to `Cc1cncc(-n2c(=O)nc(Nc3cc4cn(C)nc4cc3Cl)n(Cc3ccc(F)c(C#N)c3)c2=O)c1` [II-0378], in the assay on SARS-CoV-2 (class symbols), the EC50 lay within 1 to 10 µM. Besides, at SARS-CoV-2 3CL protease (given as class symbols), the IC50 was less than 0.1 µM.

`Cc1cc(F)c(C#N)cc1Cn1c(Nc2cc3cn(C)nc3cc2Cl)nc(=O)n(-c2cncc(N)c2)c1=O` [II-0380] registered a concentration for a half-maximal effect (EC50) in the assay with SARS-CoV-2 (class symbols) of 1 to 10 µM. Also, on SARS-CoV-2 3CL protease (given as class symbols), the 50% inhibitory concentration (IC50) was less than 0.1 µM.
